The source of these data is patent publication US6977262B2, “Dihydropyrazolopyridine compounds and pharmaceutical use thereof” (Mitsubishi Pharma Corporation, priority 2001, dated 2005).

The melting point is the temperature, or range, at which the solid turns liquid.

Each structure is given as a SMILES string.

In turn, `CCCC1=C(C(=O)OCC)C(c2ccccc2SC)c2c[nH]nc2N1` (centres unmarked) [Example 39, Ethyl 4,7-dihydro-4-(2-methylthiophenyl)-6-propyl-2H-pyrazolo[3,4-b]pyridine-5-carboxylate] registered a melting point of 198 °C. In the case of `CCCC1=C(C(=O)OCC)C(c2ccccc2Cl)c2cnn(C(=O)OCc3ccccc3)c2N1` (centres unmarked) [Example 208, Ethyl 1-benzyloxycarbonyl-4-(2-chlorophenyl)-4,7-dihydro-6-propyl-1H-pyrazolo[3,4-b]pyridine-5-carboxylate], the melting point was 80 °C. `CCC1=C([N+](=O)[O-])C(c2cccc(Cl)c2Cl)c2c[nH]nc2N1` (centres unmarked) [Example 126, 4-(2,3-Dichlorophenyl)-6-ethyl-4,7-dihydro-5-nitro-2H-pyrazolo[3,4-b]pyridine]: the melting point is 250 °C.

`N#CC1=C(C2CCN(C(=N)N)CC2)Nc2n[nH]cc2C1c1cccc2nonc12` (centres unmarked) [Example 1031, 4-(2,1,3-Benzoxadiazol-4-yl)-5-cyano-4,7-dihydro-6-(1-guanylpiperidin-4-yl)-2H-pyrazolo[3,4-b]pyridine] registered a melting point of over 270 °C. In turn, `CCCC1=C(C#N)C(c2ccccc2Cl)c2c(n[nH]c2-c2cccs2)N1` (centres unmarked) [Example 294, 4-(2-Chlorophenyl)-5-cyano-4,7-dihydro-6-propyl-3-(thiophen-2-yl)-2H-pyrazolo[3,4-b]pyridine] showed a melting point of 256 °C. Compound `CCCCc1ccccc1C1C(C(=O)OCC)=C(CCC)Nc2[nH]ncc21` (centres unmarked) [Example 102, Ethyl 4-(2-butylphenyl)-4,7-dihydro-6-propyl-1H-pyrazolo[3,4-b]pyridine-5-carboxylate] returned a melting point of 175 °C. Compound `N#CC1=C(c2ccco2)Nc2n[nH]cc2C1c1cccc2nonc12` (centres unmarked) [Example 173, 4-(2,1,3-Benzoxadiazol-4-yl)-5-cyano-6-(furan-2-yl)-4,7-dihydro-2H-pyrazolo[3,4-b]pyridine] displayed a melting point of 237 °C. The compound `CCCCOc1ccccc1C1C(C(=O)OCC)=C(CCC)Nc2n[nH]cc21` (centres unmarked) [Example 36, Ethyl 4-(2-butoxyphenyl)-4,7-dihydro-6-propyl-2H-pyrazolo[3,4-b]pyridine-5-carboxylate] displayed a melting point of 171 °C.

In turn, `COCC1=C(C(=O)OC)C(c2ccccc2OC)c2c[nH]nc2N1` (centres unmarked) [Example 91, Methyl 4,7-dihydro-6-methoxymethyl-4-(2-methoxyphenyl)-2H-pyrazolo[3,4-b]pyridine-5-carboxylate] displayed a melting point of 186 °C.

Take `CCCC1=C(C(=O)OCC)C(c2cc(Cl)ccc2Cl)c2c[nH]nc2N1` (centres unmarked) [Example 50, Ethyl 4-(2,5-dichlorophenyl)-4,7-dihydro-6-propyl-2H-pyrazolo[3,4-b]pyridine-5-carboxylate]: the melting point stood at 162 °C. With `COCC1=C(C(=O)OC)C(c2ccccc2Cl)c2c[nH]nc2N1` (centres unmarked) [Example 84, Methyl 4-(2-chlorophenyl)-4,7-dihydro-6-methoxymethyl-2H-pyrazolo[3,4-b]pyridine-5-carboxylate] the figure was 160 °C. `CCCCC1=C([N+](=O)[O-])C(c2cccc(Cl)c2Cl)c2c[nH]nc2N1` (centres unmarked) [Example 127, 6-Butyl-4-(2,3-dichlorophenyl)-4,7-dihydro-5-nitro-2H-pyrazolo[3,4-b]pyridine] showed a melting point of 220 °C. Consider `CCCC1=C(C(=O)OCC)C(c2ccccc2Cl)c2cn(C)nc2N1` (centres unmarked) [Example 231, Ethyl 4-(2-chlorophenyl)-4,7-dihydro-2-methyl-6-propyl-2H-pyrazolo[3,4-b]pyridine-5-carboxylate], for which the melting point lay in the range of 150 to 151 °C. Turning to `CCCC1=C(C#N)C(c2ccccc2Cl)c2c(n[nH]c2-c2ccco2)N1` (centres unmarked) [Example 295, 4-(2-Chlorophenyl)-5-cyano-4,7-dihydro-3-(furan-2-yl)-6-propyl-2H-pyrazolo[3,4-b]pyridine], the melting point came out at 253 °C.
